Test results reported in ChEMBL document CHEMBL1145696, “Cytotoxic glycosides from Albizia julibrissin” (J Nat Prod, 1997).

Tested on: KB
Experiment: Cytotoxicity against human KB cells by MTT assay
Format: functional, cell-based

C=C[C@](C)(CC/C=C(\C)C(=O)O[C@H]1[C@H](O)[C@@H](O)[C@H](O[C@](C)(C=C)CC/C=C(\C)C(=O)O[C@H]2C[C@]3(C(=O)O[C@@H]4O[C@H](CO)[C@@H](O)[C@H](O)[C@H]4O[C@@H]4O[C@@H](C)[C@H](O[C@@H]5O[C@@H](CO)[C@H](O)[C@H]5O)[C@@H](O[C@@H]5O[C@H](CO)[C@@H](O)[C@H](O)[C@H]5O)[C@H]4O)[C@H](O)C[C@]4(C)C(=CC[C@@H]5[C@@]6(C)CC[C@H](O[C@@H]7O[C@H](CO[C@@H]8O[C@H](C)[C@H](O)[C@H](O)[C@H]8O[C@@H]8OC[C@@H](O)[C@H](O)[C@H]8O)[C@@H](O)[C@H](O)[C@H]7NC(C)=O)C(C)(C)[C@@H]6CC[C@]54C)[C@@H]3CC2(C)C)O[C@@H]1C)O[C@@H]1O[C@H](C)[C@@H](O)[C@H](O)[C@H]1O [JULIBROSIDE III]
IC50: 0.9 µM

C=C[C@](C)(CC/C=C(\C)C(=O)O[C@H]1[C@H](O)[C@@H](O)[C@H](O[C@](C)(C=C)CC/C=C(\C)C(=O)O[C@H]2C[C@]3(C(=O)O[C@@H]4O[C@H](CO)[C@@H](O)[C@H](O)[C@H]4O[C@@H]4O[C@@H](C)[C@H](O[C@@H]5O[C@@H](CO)[C@H](O)[C@H]5O)[C@@H](O[C@@H]5O[C@H](CO)[C@@H](O)[C@H](O)[C@H]5O)[C@H]4O)[C@H](O)C[C@]4(C)C(=CC[C@@H]5[C@@]6(C)CC[C@H](O[C@@H]7O[C@H](CO[C@@H]8O[C@H](C)[C@H](O)[C@H](O)[C@H]8O[C@@H]8OC[C@@H](O)[C@H](O)[C@H]8O)[C@@H](O)[C@H](O)[C@H]7O)C(C)(C)[C@@H]6CC[C@]54C)[C@@H]3CC2(C)C)O[C@@H]1C)O[C@@H]1O[C@H](C)[C@@H](O)[C@H](O)[C@H]1O [JULIBROSIDE II]
IC50: > 10 µg/mL

C=C[C@](C)(CC/C=C(\C)C(=O)O[C@H]1[C@H](O)[C@@H](O)[C@H](O[C@](C)(C=C)CC/C=C(\C)C(=O)O[C@H]2C[C@]3(C(=O)O[C@@H]4O[C@H](CO)[C@@H](O)[C@H](O)[C@H]4O[C@@H]4O[C@@H](C)[C@H](O[C@@H]5O[C@@H](CO)[C@H](O)[C@H]5O)[C@@H](O[C@@H]5O[C@H](CO)[C@@H](O)[C@H](O)[C@H]5O)[C@H]4O)[C@H](O)C[C@]4(C)C(=CC[C@@H]5[C@@]6(C)CC[C@H](O[C@@H]7O[C@H](CO[C@@H]8O[C@H](C)[C@H](O)[C@H](O)[C@H]8O[C@@H]8OC[C@@H](O)[C@H](O)[C@H]8O)[C@@H](O)[C@H](O)[C@H]7O[C@@H]7O[C@H](CO)[C@@H](O)[C@H](O)[C@H]7O)C(C)(C)[C@@H]6CC[C@]54C)[C@@H]3CC2(C)C)O[C@@H]1C)O[C@@H]1O[C@H](C)[C@@H](O)[C@H](O)[C@H]1O [JULIBROSIDE I]
IC50: > 10 µg/mL

C[C@H]1O[C@@H](OC[C@H]2O[C@@H](O[C@H]3CC[C@]4(C)[C@H]5CC=C6[C@@H]7CC(C)(C)[C@@H]8C[C@]7(C(=O)O8)[C@H](O)C[C@@]6(C)[C@]5(C)CC[C@H]4C3(C)C)[C@H](O[C@@H]3O[C@H](CO)[C@@H](O)[C@H](O)[C@H]3O)[C@@H](O)[C@@H]2O)[C@H](O[C@@H]2OC[C@@H](O)[C@H](O)[C@H]2O)[C@@H](O)[C@H]1O [PORSAPOGENIN 5]
IC50: > 10 µg/mL

C[C@H]1O[C@@H](OC[C@H]2O[C@@H](O[C@H]3CC[C@]4(C)[C@H]5CC=C6[C@@H]7CC(C)(C)[C@@H]8C[C@]7(C(=O)O8)[C@H](O)C[C@@]6(C)[C@]5(C)CC[C@H]4C3(C)C)[C@H](O)[C@@H](O)[C@@H]2O)[C@H](O[C@@H]2OC[C@@H](O)[C@H](O)[C@H]2O)[C@@H](O)[C@H]1O [PORSAPOGENIN 6]
IC50: > 10 µg/mL

CC(=O)N[C@H]1[C@H](O[C@H]2CC[C@]3(C)[C@H]4CC=C5[C@@H]6CC(C)(C)[C@@H]7C[C@]6(C(=O)O7)[C@H](O)C[C@@]5(C)[C@]4(C)CC[C@H]3C2(C)C)O[C@H](CO[C@@H]2O[C@H](C)[C@H](O)[C@H](O)[C@H]2O[C@@H]2OC[C@@H](O)[C@H](O)[C@H]2O)[C@@H](O)[C@@H]1O [PORSAPOGENIN 7]
IC50: > 10 µg/mL

C=C[C@](C)(CC/C=C(\C)C(=O)O[C@H]1C[C@]2(C(=O)O[C@@H]3O[C@H](CO)[C@@H](O)[C@H](O)[C@H]3O[C@@H]3O[C@@H](C)[C@H](O[C@@H]4O[C@@H](CO)[C@H](O)[C@H]4O)[C@@H](O[C@@H]4O[C@H](CO)[C@@H](O)[C@H](O)[C@H]4O)[C@H]3O)[C@H](O)C[C@]3(C)C(=CC[C@@H]4[C@@]5(C)CC[C@H](O[C@@H]6O[C@H](CO[C@@H]7O[C@H](C)[C@H](O)[C@H](O)[C@H]7O[C@@H]7OC[C@@H](O)[C@H](O)[C@H]7O)[C@@H](O)[C@H](O)[C@H]6O[C@@H]6O[C@H](CO)[C@@H](O)[C@H](O)[C@H]6O)C(C)(C)[C@@H]5CC[C@]43C)[C@@H]2CC1(C)C)O[C@@H]1O[C@H](C)[C@@H](O)[C@H](O)[C@H]1O [PORSAPOGENIN 8]
IC50: 4.5 µM

C=C[C@](C)(CC/C=C(\C)C(=O)O[C@H]1C[C@]2(C(=O)O[C@@H]3O[C@H](CO)[C@@H](O)[C@H](O)[C@H]3O[C@@H]3O[C@@H](C)[C@H](O[C@@H]4O[C@@H](CO)[C@H](O)[C@H]4O)[C@@H](O[C@@H]4O[C@H](CO)[C@@H](O)[C@H](O)[C@H]4O)[C@H]3O)[C@H](O)C[C@]3(C)C(=CC[C@@H]4[C@@]5(C)CC[C@H](O[C@@H]6O[C@H](CO[C@@H]7O[C@H](C)[C@H](O)[C@H](O)[C@H]7O[C@@H]7OC[C@@H](O)[C@H](O)[C@H]7O)[C@@H](O)[C@H](O)[C@H]6O)C(C)(C)[C@@H]5CC[C@]43C)[C@@H]2CC1(C)C)O[C@@H]1O[C@H](C)[C@@H](O)[C@H](O)[C@H]1O [PORSAPOGENIN 9]
IC50: 1.6 µM

C[C@H]1O[C@@H](OC[C@H]2O[C@@H](O[C@H]3CC[C@]4(C)[C@H]5CC=C6[C@@H]7CC(C)(C)[C@@H](O)C[C@]7(C(=O)O)[C@H](O)C[C@@]6(C)[C@]5(C)CC[C@H]4C3(C)C)[C@H](O)[C@@H](O)[C@@H]2O)[C@H](O[C@@H]2OC[C@@H](O)[C@H](O)[C@H]2O)[C@@H](O)[C@H]1O [PROSAPOGENIN 1]
IC50: > 10 µg/mL

CC(=O)N[C@H]1[C@H](O[C@H]2CC[C@]3(C)[C@H]4CC=C5[C@@H]6CC(C)(C)[C@@H](O)C[C@]6(C(=O)O)[C@H](O)C[C@@]5(C)[C@]4(C)CC[C@H]3C2(C)C)O[C@H](CO[C@@H]2OC[C@H](O)[C@H](O)[C@H]2O[C@@H]2OC[C@@H](O)[C@H](O)[C@H]2O)[C@@H](O)[C@@H]1O [PROSAPOGENIN 2]
IC50: > 10 µg/mL

CC1(C)C[C@H]2C3=CC[C@@H]4[C@@]5(C)CC[C@H](O[C@@H]6O[C@H](CO[C@@H]7OC[C@H](O)[C@H](O)[C@H]7O[C@@H]7OC[C@@H](O)[C@H](O)[C@H]7O)[C@@H](O)[C@H](O)[C@H]6O)C(C)(C)[C@@H]5CC[C@@]4(C)[C@]3(C)C[C@@H](O)[C@@]23C[C@@H]1OC3=O [PROSAPOGENIN 3]
IC50: > 10 µg/mL

CC(=O)N[C@H]1[C@H](O[C@H]2CC[C@]3(C)[C@H]4CC=C5[C@@H]6CC(C)(C)[C@@H]7C[C@]6(C(=O)O7)[C@H](O)C[C@@]5(C)[C@]4(C)CC[C@H]3C2(C)C)O[C@H](CO[C@@H]2OC[C@H](O)[C@H](O)[C@H]2O[C@@H]2OC[C@@H](O)[C@H](O)[C@H]2O)[C@@H](O)[C@@H]1O [PROSAPOGENIN 4]
IC50: > 10 µg/mL

C=C[C@](C)(CC/C=C(\CO)C(=O)O[C@H]1C[C@]2(C(=O)O[C@@H]3O[C@H](CO)[C@@H](O)[C@H](O)[C@H]3O[C@@H]3O[C@@H](C)[C@H](O[C@@H]4O[C@@H](CO)[C@H](O)[C@H]4O)[C@@H](O[C@@H]4O[C@H](CO)[C@@H](O)[C@H](O)[C@H]4O)[C@H]3O)[C@H](O)C[C@]3(C)C(=CC[C@@H]4[C@@]5(C)CC[C@H](O[C@@H]6O[C@H](CO[C@@H]7O[C@H](C)[C@H](O)[C@H](O)[C@H]7O[C@@H]7OC[C@@H](O)[C@H](O)[C@H]7O)[C@@H](O)[C@H](O)[C@H]6O)C(C)(C)[C@@H]5CC[C@]43C)[C@@H]2CC1(C)C)O[C@@H]1O[C@H](C)[C@@H](O)[C@H](O)[C@H]1O [PROSAPOGENIN 10]
IC50: 2 µM

C=C[C@](C)(CC/C=C(\C)C(=O)O[C@H]1C[C@]2(C(=O)O[C@@H]3O[C@H](CO)[C@@H](O)[C@H](O)[C@H]3O[C@@H]3O[C@@H](C)[C@H](O[C@@H]4O[C@@H](CO)[C@H](O)[C@H]4O)[C@@H](O[C@@H]4O[C@H](CO)[C@@H](O)[C@H](O)[C@H]4O)[C@H]3O)CC[C@]3(C)C(=CC[C@@H]4[C@@]5(C)CC[C@H](O[C@@H]6O[C@H](CO[C@@H]7O[C@H](C)[C@H](O)[C@H](O)[C@H]7O[C@@H]7OC[C@@H](O)[C@H](O)[C@H]7O)[C@@H](O)[C@H](O)[C@H]6O)C(C)(C)[C@@H]5CC[C@]43C)[C@@H]2CC1(C)C)O[C@@H]1O[C@H](C)[C@@H](O)[C@H](O)[C@H]1O [PROSAPOGENIN 11]
IC50: 1.6 µM

C=C[C@](C)(CC/C=C(\C)C(=O)O[C@H]1C[C@]2(C(=O)O[C@@H]3O[C@H](CO)[C@@H](O)[C@H](O)[C@H]3O[C@@H]3O[C@@H](C)[C@H](O[C@@H]4O[C@@H](CO)[C@H](O)[C@H]4O)[C@@H](O[C@@H]4O[C@H](CO)[C@@H](O)[C@H](O)[C@H]4O)[C@H]3O)CC[C@]3(C)C(=CC[C@@H]4[C@@]5(C)CC[C@H](O[C@@H]6O[C@H](CO[C@@H]7O[C@H](C)[C@H](O)[C@H](O)[C@H]7O[C@@H]7OC[C@@H](O)[C@H](O)[C@H]7O)[C@@H](O)[C@H](O)[C@H]6OC6O[C@H](CO)[C@@H](O)[C@H](O)[C@H]6O)C(C)(C)[C@@H]5CC[C@]43C)[C@@H]2CC1(C)C)O[C@@H]1O[C@H](C)[C@@H](O)[C@H](O)[C@H]1O (stereo not given in full) [PROSAPOGENIN 12]
IC50: > 10 µg/mL
